The record followed here is patent US20110060124A1, “HLA-BINDING PEPTIDES, PRECURSORS THEREOF, DNA FRAGMENTS AND RECOMBINANT VECTORS THAT CODE FOR THOSE PEPTIDE SEQUENCES” (priority 2004, published 2011).

Each structure is given as a SMILES string. Peptide text beside a SMILES is read from it.

This test has as its system HLA-A24 type molecule, product of the HLA-A*2402 gene. As to the kind of experiment: Experiment of binding peptide to HLA-A24 type molecule (C1R-A24 cells, flow cytometry, Kd). The arrangement: species or system human. Conditions: −log Kd value.
Procedure: After neutralization, purified β2m was added to C1R-A24 cells, and the obtained product was added to serial dilutions of a peptide, and incubated on ice for 4 hours.
Subsequently, the MHC-pep count per C1R-A24 cell (proportional to the strength of fluorescence of the above-mentioned fluorescent antibody) was quantitatively measured using an FACScan fluorescence-activated cell sorter (Becton Dickinson Biosciences). A binding dissociation constant Kd value between the HLA-A24 type molecule and the peptide was calculated from the average strength of fluorescence per cell by a published method (Udaka et al., Immunogenetics, 51, 816-828, 2000).
Compound `CC[C@H](C)[C@H](NC(=O)[C@@H]1CCCN1C(=O)[C@H](CC(=O)O)NC(=O)[C@H](Cc1ccccc1)NC(=O)[C@H](CO)NC(=O)[C@H](CC(=O)O)NC(=O)[C@H](CC(C)C)NC(=O)[C@@H](NC(=O)[C@@H](N)C(C)C)[C@@H](C)CC)C(=O)O` [SEQ ID NO: 2] (H-VILDSFDPI-OH; N-terminus and C-terminus assumed) returned a binding experimental value of 5.324.
The same measure for `CC[C@H](C)[C@H](N)C(=O)N[C@H](C(=O)N[C@@H](Cc1ccc(O)cc1)C(=O)N[C@@H](CO)C(=O)N[C@H](C(=O)N[C@@H](Cc1ccc(O)cc1)C(=O)NCC(=O)N[C@@H](CCCCN)C(=O)N[C@@H](Cc1ccccc1)C(=O)O)[C@@H](C)O)[C@@H](C)O` [SEQ ID NO: 107] (H-ITYSTYGKF-OH; N-terminus and C-terminus assumed): 6.374.
The same measure for `CC[C@H](C)[C@H](N)C(=O)N[C@H](C(=O)N[C@@H](Cc1ccc(O)cc1)C(=O)N[C@@H](CO)C(=O)N[C@H](C(=O)N[C@@H](Cc1ccc(O)cc1)C(=O)N[C@@H](CS)C(=O)N[C@@H](CCCCN)C(=O)N[C@@H](Cc1ccccc1)C(=O)O)[C@@H](C)O)[C@@H](C)O` [SEQ ID NO: 40] (H-ITYSTYCKF-OH; N-terminus and C-terminus assumed): 6.975.
